Results: patent US10428044B2, “3-amino-1,5,6,7-tetrahydro-4H-indol-4-ones” (Bayer Pharma Aktiengesellschaft, priority 2014, dated 2019)

Target: (recombinant) catalytic domain of human Bub1 (amino acids 704-1085) (Homo sapiens (Human), UniProt O43683)
Experiment: Bub1 kinase assay (TR-FRET)
Assay type: biochemical
Settings: ATP 10 μM final, peptide substrate 1 μM final, 60 min at 22° C., read-out: Biological Assay: Bub1 kinase assay median IC50
Summary of the method: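 Readout was TR-FRET between a Eu-labeled antibody complex recognizing phosphoserine and streptavidin-XL665 on the biotinylated peptide, after EDTA stop and 1 h at 22° C. The kinase reaction ran for 60 min at 22° C. Values are means or medians of repeat tests, from 4-parameter fits normalized to enzyme-free and inhibitor-free controls.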

Sequence of (recombinant) catalytic domain of human Bub1 (amino acids 704-1085) (O43683 704-1085): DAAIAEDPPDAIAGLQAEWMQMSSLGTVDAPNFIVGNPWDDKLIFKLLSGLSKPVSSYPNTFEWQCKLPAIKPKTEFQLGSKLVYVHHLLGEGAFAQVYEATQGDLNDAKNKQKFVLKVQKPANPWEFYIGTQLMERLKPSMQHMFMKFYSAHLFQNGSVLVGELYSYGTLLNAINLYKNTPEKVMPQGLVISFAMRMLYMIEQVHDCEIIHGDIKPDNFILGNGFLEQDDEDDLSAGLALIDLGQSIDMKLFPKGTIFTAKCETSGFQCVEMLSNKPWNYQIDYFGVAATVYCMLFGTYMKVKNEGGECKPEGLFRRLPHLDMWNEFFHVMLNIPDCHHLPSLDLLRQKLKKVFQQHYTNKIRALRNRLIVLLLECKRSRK

CC1(C)CC(=O)c2c([nH]c(-c3ccncc3)c2Nc2ccc(Cc3ccccc3)cc2)C1 [Example 513, 3-[(4-benzylphenyl)amino]-6,6-dimethyl-2-(pyridin-4-yl)-1,5,6,7-tetrahydro-4H-indol-4-one] was tested, and the IC50 was > 20 µM.

For CC1(C)CC(=O)c2c([nH]c(-c3ccncc3)c2Nc2ccc(Oc3ccccc3)cc2)C1 [Example 514, 6,6-dimethyl-3-[(4-phenoxyphenyl)amino]-2-(pyridin-4-yl)-1,5,6,7-tetrahydro-4H-indol-4-one], the IC50 was > 20 µM.
